# From PubChem BioAssay AID1918936 (Molecular Pharmacology Branch, DTP, NCI, 2023)
# System: 349418-098-R-PDC complex spheroid viability
# Assay: Anticancer human tumor 349418-098-R-PDC patient-derived lung adenocarcinoma cell line growth inhibition
# Conditions: for IC50: curve of first compound; for viability, T/C: stronger effect = lower value
# Excerpt: Multicellular complex tumor spheroid response to LSD1 Inhibitor Iadademstat in combination with a variety of drugs and investigational agents in selected tumor cell lines
# The current study was undertaken to assess response to LSD1 inhibitors in combination with standard-of-care drugs and investigational agents in solid tumor complex spheroid models as well as in the K-562 leukemia. Complex spheroids include a stromal component modeled by human endothelial cells (HUVEC) and fibroblasts modeled by human mesenchymal stem cells (MSCs). The concentration ranges selected for each drug and investigational agent were based upon clinically achievable concentrations if the clinical Cmax of the agent was known.
# Compounds. The drugs and investigational agents used in this study are listed on Table 1. All of the agents used, including staurosporine (NSC755774) and gemcitabine (NSC613327), were obtained from the Developmental Therapeutics Program, NCI. FDA-approved anticancer drugs are available from the NCI at http://dtp.nci.nih.gov/branches/dscb/oncology_drugset_explanation.html. Drugs and investigational agents were >95% pure by proton nuclear magnetic resonance (NMR) and liquid chromatography/mass spectrometry (LC/MS). Stock solutions were prepared at 400x in DMSO, stored at -70 degrees C, and diluted in fresh medium prior to their use. The final concentration of DMSO in cell culture wells never exceeded 0.25% (v/v). The FDA-approved anticancer drug set is available from the Developmental Therapeutics Program at https://dtp.cancer.gov/organization/dscb/obtaining/available_plates.htm. All drugs and investigational agents were tested over a range starting from a high concentration at or near the clinical Cmax and decreasing in half-log increments. If the clinical Cmax for an agent had not been determined, the highest concentration tested was 10 microM.
# Cell Lines. The patient-derived cancer cell (PDC) lines: 292921-168-R-J2-PDC, K24384-001-R-PDC, and 521955-158-R2-J5-PDC pancreatic carcinomas, 556581-035-R-J1 ovarian carcinoma, 324938-238-R-J1-PDC, 855422-203-R-J1-PDC and 883617-216-R-J1-PDC urothelial bladder carcinomas, 743489-274-T-PDC renal cell carcinoma, 138582-R-J1 Merkel cell tumor, K60290-347-R-J1 and K57222-313-R-J1-PDC glioblastomas, 653999-131-R-J2-PDC, LG0703-F948-PDC, and 349418-098-R-PDC non-small cell lung carcinomas, 885512-296-R-J2-PDC, 171881-019-R-J1-PDC breast carcinomas and 186277-243-T-J2-PDC and 233499-124-R-J2-PDC colon carcinomas were obtained from the NCI Patient-Derived Models Repository (PDMR, https://pdmr.cancer.gov). The established cell lines NCI/ADR-RES (RRID:CVCL_14520 and OVCAR-5 (RRID:CVCL_1628) ovarian carcinomas, 786-O (RRID:CVCL_1051) and A498 (RRID:CVCL_A498) renal cell carcinoma, NCI-H211 (ATCC, cat. CRL-5824; RRID:CVCL_1529), NCI-H196 (ATCC, cat. CRL-5823, RRID:CVCL_1509), SW 1271 (ATCC, cat. CRL-2177, RRID:CVCL_1716) and NCI-H1876 (ATCC, cat. CRL-5902, RRID:CVCL_1503) small cell lung carcinomas, MDA-MB-231 (RRID:CVCL_0062) and MDA-MB-468 (RRID:CVCL_0419)breast carcinomas (10-12). Pooled donor human umbilical vein endothelial cells (HUVEC, Lonza, cat. CC-2519) and human mesenchymal stem cells (hMSC, Lonza, cat. PT-2501) were purchased from Lonza (Walkersville, MD).
# Cell Culture. All cells were maintained in an incubator at 37 degrees C and 5% CO2 with 95% humidity. The PDC lines were cultured according to standard operating procedures established by the NCI PDMR (https://pdmr.cancer.gov). Briefly all PDCs were thawed and cultured in Matrigel-coated flasks prepared with a working solution of 1X Ham's F-12 nutrient mix, without supplementation (Invitrogen, Waltham, MA, cat. 11765054), 100 U/mL penicillin-streptomycin (Invitrogen, cat. 15140122), and 2.5% Matrigel (Corning Inc., Corning, NY, cat. 354248) for the first three passages. […]
# [1] = second compound 0.1 µM, first compound 0.0316 µM
# [2] = second compound 0.1 µM, first compound 0.1 µM
# [3] = second compound 0.316 µM, first compound 0.0316 µM
# [4] = second compound 0.316 µM, first compound 0.1 µM
# [5] = second compound 1 µM, first compound 0.0316 µM
# [6] = second compound 1 µM, first compound 0.1 µM
# [7] = second compound 3.16 µM, first compound 0.0316 µM
# [8] = second compound 3.16 µM, first compound 0.1 µM
# [9] = second compound 10 µM, first compound 0.0316 µM
# [10] = second compound 10 µM, first compound 0.1 µM
# 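Further: spheroids exposed to agents for seven days before readout.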
# 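Wherever viability, T/C is given: 100% = DMSO vehicle control wells.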
structure (smiles),measurement,setting,value
CC1(C)CCC(CN2CCN(c3ccc(C(=O)NS(=O)(=O)c4ccc(NCC5CCOCC5)c([N+](=O)[O-])c4)c(Oc4cnc5[nH]ccc5c4)c3)CC2)=C(c2ccc(Cl)cc2)C1 + NC1CCC(NC2CC2c2ccccc2)CC1,IC50,second compound 0.1 µM,4.25 µM
same,IC50,second compound 0.316 µM,4.54 µM
same,IC50,second compound 1 µM,4.3 µM
same,IC50,second compound 3.16 µM,4.55 µM
same,IC50,second compound 10 µM,4.24 µM
same,"viability, T/C",[1],110%
same,"viability, T/C",[2],110%
same,"viability, T/C","second compound 0.1 µM, first compound 0.316 µM",99.3%
same,"viability, T/C","second compound 0.1 µM, first compound 1 µM",96.3%
same,"viability, T/C","second compound 0.1 µM, first compound 3.16 µM",62.5%
same,"viability, T/C","second compound 0.1 µM, first compound 10 µM",11.8%
same,"viability, T/C",[3],115%
same,"viability, T/C",[4],105%
same,"viability, T/C","second compound 0.316 µM, first compound 0.316 µM",103%
same,"viability, T/C","second compound 0.316 µM, first compound 1 µM",103%
same,"viability, T/C","second compound 0.316 µM, first compound 3.16 µM",67.9%
same,"viability, T/C","second compound 0.316 µM, first compound 10 µM",11.7%
same,"viability, T/C",[5],108%
same,"viability, T/C",[6],111%
same,"viability, T/C","second compound 1 µM, first compound 0.316 µM",105%
same,"viability, T/C","second compound 1 µM, first compound 1 µM",96.1%
same,"viability, T/C","second compound 1 µM, first compound 3.16 µM",64.4%
same,"viability, T/C","second compound 1 µM, first compound 10 µM",10.4%
same,"viability, T/C",[7],103%
same,"viability, T/C",[8],101%
same,"viability, T/C","second compound 3.16 µM, first compound 0.316 µM",104%
same,"viability, T/C","second compound 3.16 µM, first compound 1 µM",94.1%
same,"viability, T/C","second compound 3.16 µM, first compound 3.16 µM",67.7%
same,"viability, T/C","second compound 3.16 µM, first compound 10 µM",12%
same,"viability, T/C",[9],62.9%
same,"viability, T/C",[10],81.2%
same,"viability, T/C","second compound 10 µM, first compound 0.316 µM",91%
same,"viability, T/C","second compound 10 µM, first compound 1 µM",87.4%
same,"viability, T/C","second compound 10 µM, first compound 3.16 µM",63%
same,"viability, T/C","second compound 10 µM, first compound 10 µM",11.9%
Cn1ncnc1C1c2n[nH]c(=O)c3cc(F)cc(c23)NC1c1ccc(F)cc1 (stereo not given) + NC1CC1c1ccc(-c2cccc(O)c2)cc1,IC50,second compound 0.1 µM,> 0.1 µM
same,IC50,second compound 0.316 µM,> 0.1 µM
same,IC50,second compound 1 µM,> 0.1 µM
same,IC50,second compound 3.16 µM,> 0.1 µM
same,IC50,second compound 10 µM,> 0.1 µM
same,"viability, T/C","second compound 0.1 µM, first compound 0.000316 µM",115%
same,"viability, T/C","second compound 0.1 µM, first compound 0.001 µM",105%
same,"viability, T/C","second compound 0.1 µM, first compound 0.00316 µM",112%
same,"viability, T/C","second compound 0.1 µM, first compound 0.01 µM",105%
same,"viability, T/C",[1],101%
same,"viability, T/C",[2],102%
same,"viability, T/C","second compound 0.316 µM, first compound 0.000316 µM",112%
same,"viability, T/C","second compound 0.316 µM, first compound 0.001 µM",110%
same,"viability, T/C","second compound 0.316 µM, first compound 0.00316 µM",111%
same,"viability, T/C","second compound 0.316 µM, first compound 0.01 µM",104%
same,"viability, T/C",[3],106%
same,"viability, T/C",[4],101%
same,"viability, T/C","second compound 1 µM, first compound 0.000316 µM",119%
same,"viability, T/C","second compound 1 µM, first compound 0.001 µM",112%
same,"viability, T/C","second compound 1 µM, first compound 0.00316 µM",106%
same,"viability, T/C","second compound 1 µM, first compound 0.01 µM",107%
same,"viability, T/C",[5],108%
same,"viability, T/C",[6],101%
same,"viability, T/C","second compound 3.16 µM, first compound 0.000316 µM",114%
same,"viability, T/C","second compound 3.16 µM, first compound 0.001 µM",117%
same,"viability, T/C","second compound 3.16 µM, first compound 0.00316 µM",105%
same,"viability, T/C","second compound 3.16 µM, first compound 0.01 µM",115%
same,"viability, T/C",[7],103%
same,"viability, T/C",[8],103%
same,"viability, T/C","second compound 10 µM, first compound 0.000316 µM",99.1%
same,"viability, T/C","second compound 10 µM, first compound 0.001 µM",100%
same,"viability, T/C","second compound 10 µM, first compound 0.00316 µM",98.9%
same,"viability, T/C","second compound 10 µM, first compound 0.01 µM",96.9%
same,"viability, T/C",[9],90.9%
same,"viability, T/C",[10],86.8%
